# Reference: patent US20240409543A1, “PYRROLOPYRAZOLE SPIRO COMPOUND” (CHIA TAI TIANQING PHARMACEUTICAL GROUP CO., LTD., priority 2021, published 2024)
# Experiments:
# [1] = tested on: human pancreatic cancer MIA PaCa-2 cell line subcutaneous xenograft; experiment: In-vivo inhibition of MiaPaCa-2 subcutaneous xenograft tumor; parameters: species or system female BALB/c nude mouse
# Description: To evaluate the antitumor effect of each test drug in a female BALB/c nude mouse animal model with subcutaneous xenograft of a human pancreatic cancer MIA PaCa-2 cell line.
# MIA PaCa-2 cells were cultured in a DMEM medium containing 2.5% HS and 10% fetal bovine serum. MIA PaCa-2 cells in the logarithmic growth phase were collected and resuspended in PBS to achieve an appropriate concentration for subcutaneous tumor inoculation in nude mice.
# The experimental mice were inoculated subcutaneously on the right dorsal side with 5×10^6 MIA PaCa-2 cells (the cells were resuspended in a 1:1 mixture of PBS and matrigel), with 0.1 mL per mouse. Tumor growth was observed regularly. Once the tumors reached an average volume of approximately 125 (100-150) mm^3, the mice were randomly divided into groups for administration based on the tumor size and body weight.
# After the start of the administration, the body weight and tumor size of the mice were measured twice a week. Calculation formula for tumor volume: Tumor volume (mm^3)=1/2×(a×b^2) (where a represents long diameter and b represents short diameter).
# [2] = tested on: MiaPaCa-2 cells (MIAPACA2_PANCREAS); experiment: Anti-proliferation experiment on tumor cells with KRAS mutations, MiaPaCa-2 (3D CellTiter-Glo); type: cell-based; conditions: Homo sapiens, MIA PaCa-2, 72 h, 3 days incubation with compound, ultra-low attachment plate
# Source text: (§1) Cell culture medium, penicillin/streptomycin antibiotics purchased from Wisent, and fetal bovine serum purchased from Biosera; 3D CellTiter-Glo (chemiluminescence detection reagent for cell viability) reagent purchased from Promega; Cell lines purchased from Nanjing Cobioer Biosciences Co., Ltd. and Wuhan Procell Life Science & Technology Co., Ltd; and Envision multimode microplate reader (PerkinElmer).
# (§2) Different types of tumor cells were each seeded in an ultra-low attachment 96-well U-bottom plate, with 80 μL of cell suspension per well. The cell plate was incubated in a CO2 incubator overnight.
# (§3) Each test compound was diluted in a 5-fold gradient to the 9th concentration (i.e., from 2 mM to 5.12 nM or from 200 μM to 0.512 nM) using a multi-channel pipette, with duplicate wells set up. 78 μL of medium was added to an intermediate plate, and the serially diluted compound was transferred to the corresponding wells of the intermediate plate at 2 μL/well. The mixture was mixed well and then transferred to the cell plate at 20 µL/well. The concentration of the compound transferred to the cell plate ranged from 10 μM to 0.0256 nM or from 1 μM to 0.00256 nM. The cell plate was then incubated in a CO2 incubator for 3-6 days.
# (§4) The chemiluminescence detection reagent for cell viability was added to the cell plate at 100 μL/well, and the luminescence signals were stabilized by incubation for 10 min at room temperature. Readings were taken using the multimode microplate reader.
# (§5) The original data were converted to inhibition rates and then the IC50 values were obtained by curve fitting using a four-parameter method (obtained from the “log(inhibitor) vs. response—Variable slope” model in GraphPad Prism). Table 2 illustrates the inhibitory activity of the compounds disclosed herein against the proliferation of different types of tumor cells.
# [3] = In-vivo pharmacokinetic study in rats; conditions: male, SD, rat, plasma
# Description: (§6) This experiment was intended to evaluate the pharmacokinetic behavior of each compound after a single intravenous injection and intragastric administration and to investigate the bioavailability after intragastric administration.
# Male SD rats aged 7 to 10 weeks were selected. The rats were fasted for at least 12 h before administration and were allowed to feed again 4 h after administration, with free access to water throughout the experiment.
# On the day of the experiment, animals in the intravenous group were given the corresponding compound by a single injection via the tail vein at an administration volume of 5 mL/kg; the oral group was given the corresponding compound by a single intragastric administration at an administration volume of 10 mL/kg. The animals were weighed before administration, and the administration volume was calculated based on their body weight. Sample collection time points: 0.083 h (injection group), 0.25 h, 0.5 h, 1 h, 2 h, 4 h, 6 h, 8 h, and 24 h. At each time point, approximately 200 μL of whole blood was collected via the jugular vein, which was then used to prepare plasma for concentration determination by high performance liquid chromatography-tandem mass spectrometry (LC-MS/MS).
# All animals were euthanized with CO2 anesthesia after the PK samples were taken at the last time point. The plasma concentrations were processed using a non-compartmental model of the pharmacokinetic software WinNonlin™ Version 6.3 (Pharsight, Mountain View, CA), and the pharmacokinetic parameters were calculated using a linear log-trapezoidal method.
# [4] = In-vivo pharmacokinetic study in mice; parameters: species or system male CD-1 mice; conditions: male, CD-1, mouse, plasma
# Description: as §6
# Male CD-1 mice aged 7 to 10 weeks were selected. The mice were fasted for at least 12 h before administration and were allowed to feed again 4 h after administration, with free access to water throughout the experiment.
# On the day of the experiment, animals in the intravenous group were given the corresponding compound by a single injection via the tail vein at an administration volume of 5 mL/kg; animals in the oral group were given the corresponding compound by a single intragastric administration at an administration volume of 10 mL/kg. The animals were weighed before administration, and the administration volume was calculated based on their body weight. Sample collection time points: For the injection group, samples were collected at 0.083 h, 0.25 h, 0.5 h, 1 h, 2 h, 4 h, 8 h, and 24 h; for the intragastric group, samples were collected at 0.25 h, 0.5 h, 1 h, 2 h, 4 h, 6 h, 8 h, and 24 h. At each time point, approximately 30 μL of whole blood was collected via the saphenous vein, which was then used to prepare plasma for concentration determination by high performance liquid chromatography-tandem mass spectrometry (LC-MS/MS). All animals were euthanized with […] after the PK samples were taken at the last time point. The plasma concentrations were processed using a non-compartmental model of the pharmacokinetic software WmnNonlin™ Version 6.3 (Pharsight, Mountain View, CA), and the pharmacokinetic parameters were calculated using a linear log-trapezoidal method.
# [5] = tested on: H358 cells (NCIH358_LUNG); experiment: Anti-proliferation experiment on tumor cells with KRAS mutations, H358 (3D CellTiter-Glo); type: cell-based; conditions: Homo sapiens, NCI-H358, 120 h, 5 days incubation with compound, ultra-low attachment plate
# Source text: as §1, §2, §3, §4, §5
# [6] = Day 12, 30 mg/kg oral once daily
# [7] = Day 39, 30 mg/kg oral once daily
# [8] = iv, injection (tail vein), dose 2 mg/kg
# [9] = oral administration, dose 20 mg/kg
# [10] = oral administration, dose 10 mg/kg
# [11] = iv, injection (tail vein), dose 1 mg/kg
# [12] = oral 2 mg/kg vs injection 1 mg/kg
# [13] = oral administration, dose 2 mg/kg
IC50 [2] [nM],"AUC(0-t) [3, 8] [µM·h]","clearance [3, 8] [mL/min/kg]",bioavailability ([3]; oral 20 mg/kg vs injection 2 mg/kg) [%],"AUC(0-t) [3, 9] [µM·h]","Cmax [3, 9] [nM]","AUC(0-t) [4, 8] [µM·h]","clearance [4, 8] [mL/min/kg]",bioavailability ([4]; oral 10 mg/kg vs injection 2 mg/kg) [%],"AUC(0-t) [4, 10] [µM·h]","Cmax [4, 10] [nM]",IC50 [5] [nM],"AUC(0-t) [4, 11] [µM·h]","clearance [4, 11] [mL/min/kg]","bioavailability [4, 12] [%]","AUC(0-t) [4, 13] [µM·h]","Cmax [4, 13] [nM]",SMILES,"Mean tumor volume [1, 6] [mm^3]","Inhibition rate (%) at day 39 [1, 7] [%]","Mean tumor volume [1, 7] [mm^3]"
22.6,4.05,17.3,98,39.7,9730,2.53,27.7,69.5,8.6,3540,22.1,–,–,–,–,–,Cc1nc(N2CCC3(CC2)Cn2nccc2C3N)c(CO)nc1Sc1ccnc(N)c1Cl (stereo not drawn) [Compound 1],129.20,63.1,278.34
24.4,–,–,–,–,–,–,–,–,–,–,61.4,1.32,27,83.6,2.04,927,CNc1nccc(Sc2nc(CO)c(N3CCC4(CC3)Cn3nccc3C4N)nc2C)c1Cl (stereo not drawn) [Compound 2],129.17,66.6,248.09
56.9,–,–,–,–,–,–,–,–,–,–,145,0.974,35.5,58.6,0.99,372,Cc1nc(N2CCC3(CC2)Cn2nccc2C3N)c(CO)nc1Sc1cccnc1C(F)(F)F (stereo not drawn) [Compound 4],–,–,–
62.1,–,–,–,–,–,–,–,–,–,–,120,0.638,68.3,89.8,0.817,463,Cc1nc(N2CCC3(CC2)Cn2nccc2C3N)c(CO)nc1Sc1ccnc(N)c1F (stereo not drawn) [Compound 6],–,–,–
